In patent US7220756B2, “N-sulfonylheterocyclopyrrolyl-alkylamine compounds as 5-hydroxytryptamine-6 ligands” (Wyeth, priority 2003, dated 2007):

The compounds below were run against T1, human cloned 5-HT6 receptors (Homo sapiens, UniProt P50406) (assay: 5-HT6 binding affinity, [3H]-LSD displacement). Conditions: not given.
T1 construct: expressed in transfected cells; host or cells: HeLa cells
Experimental: The affinity of test compounds for the serotonin 5-HT6 receptor is evaluated in the following manner. Cultured Hela cells expressing human cloned 5-HT6 receptors are harvested and centrifuged at low speed (1,000×g) for 10.0 min to remove the culture media. The harvested cells are suspended in half volume of fresh physiological phosphate buffered saline solution and recentrifuged at the same speed. This operation is repeated. The collected cells are then homogenized in ten volumes of 50 mM Tris.HCl (pH 7.4) and 0.5 mM EDTA. The homogenate is centrifuged at 40,000×g for 30.0 min and the precipitate is collected. The obtained pellet is resuspended in 10 volumes of Tris.HCl buffer and recentrifuged at the same speed. The final pellet is suspended in a small volume of Tris.HCl buffer and the tissue protein content is determined in aliquots of 10–25 μl volumes. Bovine Serum Albumin is used as the standard in the protein determination according to the method described in Lowry et al., J. Biol. Chem., 193:265 (1951). The volume of the suspended cell membranes is adjusted to give a tissue protein concentration of 1.0 mg/ml of suspension. The prepared membrane suspension (10 times concentrated) is aliquoted in 1.0 ml volumes and stored at −70° C. until used in subsequent binding experiments.
The reaction is allowed to proceed in the dark for 120 min at room temperature, at which time, the bound ligand-receptor complex is filtered off on a 96 well unifilter with a Packard Filtermate® 196 Harvester. The bound complex caught on the filter disk is allowed to air dry and the radioactivity is measured in a Packard TopCount® equipped with six photomultiplier detectors, after the addition of 40.0 μl Microscint®−20 scintillant to each shallow well. The unifilter plate is heat-sealed and counted in a PackardTopCount® with a tritium efficiency of 31.0%.
Binding in the presence of varying concentrations of test compound is expressed as a percentage of specific binding in the absence of test compound. The results are plotted as log % bound versus log concentration of test compound. […] A linear regression line of data points is plotted, from which the IC50 value is determined and the Ki value is determined based upon the following equation: Ki=IC50/(1+L/KD) where L is the concentration of the radioactive ligand used and KD is the dissociation constant of the ligand for the receptor, both expressed in nM.

T1 sequence (P50406 whole entry): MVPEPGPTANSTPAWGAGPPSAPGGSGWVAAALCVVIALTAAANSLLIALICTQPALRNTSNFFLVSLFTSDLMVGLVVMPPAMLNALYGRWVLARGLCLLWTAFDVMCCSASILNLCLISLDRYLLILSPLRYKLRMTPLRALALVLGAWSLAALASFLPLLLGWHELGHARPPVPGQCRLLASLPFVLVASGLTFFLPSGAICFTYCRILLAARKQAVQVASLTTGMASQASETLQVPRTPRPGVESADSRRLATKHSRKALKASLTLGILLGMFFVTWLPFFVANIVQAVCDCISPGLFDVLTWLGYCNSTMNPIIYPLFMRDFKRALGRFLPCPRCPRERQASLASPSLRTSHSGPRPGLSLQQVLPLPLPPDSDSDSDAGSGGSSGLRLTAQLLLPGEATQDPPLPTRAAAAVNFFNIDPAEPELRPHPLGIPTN

Compound | Ki [nM]
NCCc1cn(S(=O)(=O)c2ccccc2)c2sccc12 [Example 8, 2-[6-(phenylsulfonyl)-6H-thieno[2,3-b]pyrrol-4-yl]ethylamine] | 7.5 ± 0.9

Same assay, conditions: membranes of Hela cells expressing human cloned 5-HT6 receptors; [3H]-LSD 3.0 nM; 120 min, room temperature; read-out: 5-HT6 Binding Ki

Compound | Ki [nM]
2-{[4-(2-chlorophenyl)sulfonyl]-4H-thieno[3,2-b]pyrrol-6-yl}ethylamine [Example 69] | 2.7 ± 0.2
2-{[4-(3-chlorophenyl)sulfonyl]-4H-thieno[3,2-b]pyrrol-6-yl}ethylamine [Example 65] | 2.7 ± 0.1
2-{[6-(2,6-dichloroimidazo[2,1-b][1,3]thiazol-5-yl)sulfonyl]-6H-thieno[2,3-b]pyrrol-4-yl}-ethylamine [Example 21] | 21.3 ± 1.5
2-{[6-(2-chloroimidazo[1,2-a]pyrid-3-yl)sulfonyl]-6H-thieno[2,3-b]pyrrol-4-yl}-ethylamine [Example 20] | 11.3 ± 0.3
2-{[6-(2-chlorophenyl)sulfonyl]-6H-thieno[2,3-b]pyrrol-4-yl}ethylamine [Example 18] | 13 ± 1.5
2-{[6-(3-Chlorophenyl)sulfonyl]-6H-thieno[2,3-b]pyrrol-4-yl}ethylamine [Example 10] | 4.3 ± 0.5
2-{[6-(3-chloro-2-methylphenyl)sulfonyl]-6H-thieno[2,3-b]pyrrol-4-yl}ethylamine [Example 34] | 13.3 ± 1.5
2-{[6-(4-chlorophenyl)sulfonyl]-6H-thieno[2,3-b]pyrrol-4-yl}ethylamine [Example 22] | 13.3 ± 0.7
2-{[6-(5-Chlorothien-2-yl)sulfonyl]-6H-thieno[2,3-b]pyrrol-4-yl}ethylamine [Example 11] | 4.9 ± 0.8
2-{[6-(6-Chloroimidazo[2,1-b][1,3]thiazol-5-yl)sulfonyl]-6H-thieno[2,3-b]pyrrol-4-yl}-ethylamine [Example 12] | 2.1 ± 0.1
NCCc1cn(S(=O)(=O)c2cccc(C(F)(F)F)c2)c2sccc12 [Example 9, 2-{[6-(3-trifluoromethyl)phenylsulfonyl]-6H-thieno[2,3-b]pyrrol-4-yl}ethylamine] | 8.9 ± 0.7
NCCc1cn(S(=O)(=O)c2ccc3ccccc3c2)c2sccc12 [Example 13, 2-[6-(2-naphthylsulfonyl)-6H-thieno[2,3-b]pyrrol-4-yl]ethylamine] | 16.7 ± 2.4
COc1cccc(S(=O)(=O)n2cc(CCN)c3ccsc32)c1 [Example 14, 2-{[6-(3-methoxyphenyl)sulfonyl]-6H-thieno[2,3-b]pyrrol-4-yl}ethylamine] | 2.3 ± 0.1
Cc1c(S(=O)(=O)n2cc(CCN)c3ccsc32)sc2ccc(Cl)cc12 [Example 15, 2-{[6-(5-chloro-3-methylbenzo[b]thien-2-yl)sulfonyl]-6H-thieno[2,3-b]pyrrol-4-yl}-ethylamine] | 102 ± 5.7
NCCc1cn(S(=O)(=O)c2ccccc2F)c2sccc12 [Example 16, 2-{[6-(2-fluorophenyl)sulfonyl]-6H-thieno[2,3-b]pyrrol-4-yl}ethylamine] | 12 ± 1.2
NCCc1cn(S(=O)(=O)c2cccc(F)c2)c2sccc12 [Example 17, 2-{[6-(3-fluorophenyl)sulfonyl]-6H-thieno[2,3-b]pyrrol-4-yl}ethylamine] | 9.3 ± 0.7
NCCc1cn(S(=O)(=O)c2cnc3sccn23)c2sccc12 [Example 19, 2-{[6-(imidazo[2,1-b][1,3]thiazol-5-yl)sulfonyl]-6H-thieno[2,3-b]pyrrol-4}ethylamine] | 3.4 ± 0.6
NCCc1cn(S(=O)(=O)c2cccc(Cl)c2Cl)c2sccc12 [Example 23, 2-{[6-(2,3-dichlorophenyl)sulfonyl)-6H-thieno[2,3-b]pyrrol-4-yl}ethylamine] | 7.1 ± 0.2
NCCc1cn(S(=O)(=O)c2cccc(Br)c2)c2sccc12 [Example 24, 2-{[6-(3-bromophenyl)sulfonyl]-6H-thieno[2,3-b]pyrrol-4-yl}ethylamine] | 9 ± 0.5
NCCc1cn(S(=O)(=O)c2ccc(Br)s2)c2sccc12 [Example 25, 2-{[6-(5-bromothien-2-yl)sulfonyl]-6H-thieno[2,3-b]pyrrol-4-yl}ethylamine] | 17.7 ± 3.2
NCCc1cn(S(=O)(=O)c2cccs2)c2sccc12 [Example 26] | 20 ± 2

Compound | Ki [nM]
NCCc1cn(S(=O)(=O)c2cc(Cl)c(Cl)s2)c2sccc12 [Example 27, 2-{[6-(4,5-dichlorothien-2-yl)sulfonyl]-6H-thieno[2,3-b]pyrrol-4-yl}ethylamine] | 32.7 ± 4.1
NCCc1cn(S(=O)(=O)c2cccc3ccccc23)c2sccc12 [Example 28, 2-[6-(1-naphthylsulfonyl)-6H-thieno[2,3-b]pyrrol-4-yl]ethylamine] | 9.2 ± 0.8
Cc1cccc(S(=O)(=O)n2cc(CCN)c3ccsc32)c1 [Example 29, 2-{[6-(3-methylphenyl)sulfonyl]-6H-thieno[2,3-b]pyrrol-4-yl}ethylamine] | 7.8 ± 0.4
Cc1nc(S(=O)(=O)n2cc(CCN)c3ccsc32)cn1C [Example 30, 2-{[6-(1,2-dimethyl-1H-imidazol-4-yl)sulfonyl]-6H-thieno[2,3-b]pyrrol-4-yl}ethylamine] | 134 ± 10.3
NCCc1cn(S(=O)(=O)c2cccc3cccnc23)c2sccc12 [Example 31, 2-{[6-(quinolin-8-yl)sulfonyl]-6H-thieno[2,3-b]pyrrol-4-yl}-ethylamine] | 8.6 ± 0.8
NCCc1cn(S(=O)(=O)c2ccccc2C(F)(F)F)c2sccc12 [Example 32, 2-{{[6-(2-trifluoromethyl)phenyl]sulfonyl}-6H-thieno[2,3-b]pyrrol-4-yl}ethylamine] | 21 ± 2.7
COc1ccc(S(=O)(=O)n2cc(CCN)c3ccsc32)cc1 [Example 33, 2-{[6-(4-methoxyphenyl)sulfonyl]-6H-thieno[2,3-b]pyrrol-4-yl}ethylamine] | 24.7 ± 1.7
NCCc1cn(S(=O)(=O)c2ccc(N)cc2)c2sccc12 [Example 35, 2-{[6-(4-aminophenyl)sulfonyl]-6H-thieno[2,3-b]pyrrol-4-yl}ethylamine] | 2.4 ± 0.3
CN(C)CCc1cn(S(=O)(=O)c2ccccc2)c2sccc12 [Example 38, N,N-Dimethyl-2-[6-(phenylsulfonyl)-6H-thieno[2,3-b]pyrrol-4-yl]ethylamine] | 1.2 ± 0.1
CN(C)CCc1cn(S(=O)(=O)c2cccc(C(F)(F)F)c2)c2sccc12 [Example 39, N,N-dimethyl-2-{{[6-(3-trifluoromethyl)phenyl]sulfonyl}-6H-thieno[2,3-b]pyrrol-4-yl}-ethylamine] | 2.3 ± 0.5
COc1cccc(S(=O)(=O)n2cc(CCN(C)C)c3ccsc32)c1 [Example 44] | 0.8 ± 0.1
Cc1c(S(=O)(=O)n2cc(CCN(C)C)c3ccsc32)sc2ccc(Cl)cc12 [Example 45, N,N-dimethyl-2-{[6-(5-chloro-3-methylbenzo[b]thien-2-yl)sulfonyl]-6H-thieno[2,3-b]pyrrol-4-yl}ethylamine] | 20.3 ± 3.4
CN(C)CCc1cn(S(=O)(=O)c2ccccc2F)c2sccc12 [Example 46, N,N-dimethyl-2-{[6-(2-fluorophenyl)sulfonyl]-6H-thieno[2,3-b]pyrrol-4-yl}ethylamine] | 1.8 ± 0.1
CN(C)CCc1cn(S(=O)(=O)c2cccc(F)c2)c2sccc12 [Example 47, N,N-dimethyl-2-{[6-(3-fluorophenyl)sulfonyl]-6H-thieno[2,3-b]pyrrol-4-yl]-ethylamine] | 2.1 ± 0.2
CN(C)CCc1cn(S(=O)(=O)c2cccs2)c2sccc12 [Example 56, N,N-dimethyl-2-{(6-thien-2-ylsulfonyl)-6H-thieno[2,3-b]pyrrol-4-yl]-ethyllamine] | 2.4 ± 0.2
CN(C)CCc1cn(S(=O)(=O)c2cccc3ccccc23)c2sccc12 [Example 58, N,N-dimethyl-2-{[6-(1-naphthyl)sulfonyl]-6H-thieno[2,3-b]pyrrol-4-yl}ethylamine] | 3.6 ± 0.1
Cc1cccc(S(=O)(=O)n2cc(CCN(C)C)c3ccsc32)c1 [Example 59, N,N-dimethyl-2-{[6-(3-methylphenyl)sulfonyl]-6H-thieno[2,3-b]pyrrol-4-yl}ethylamine] | 1.6
Cc1nc(S(=O)(=O)n2cc(CCN(C)C)c3ccsc32)cn1C [Example 60, N,N-dimethyl-2-{[6-(1,2-dimethyl-1H-imidazol-4-yl)sulfonyl]-6H-thieno[2,3-b]pyrrol-4-yl}ethylamine] | 50 ± 1
CN(C)CCc1cn(S(=O)(=O)c2cccc3cccnc23)c2sccc12 [Example 61, N,N-dimethyl-2-{[6-(8-quinolinyl)sulfonyl]-6H-thieno[2,3-b]pyrrol-4-yl}ethylamine] | 4.7 ± 0.1
CN(C)CCc1cn(S(=O)(=O)c2ccccc2C(F)(F)F)c2sccc12 [Example 62, N,N-dimethyl-2-{{[6-(2-trifluoromethyl)phenyl]sulfonyl}-6H-thieno[2,3-b]pyrrol-4-yl}ethylamine] | 4.7 ± 0.1
